O=C(O)[C@@H]1Cc2ccccc2N1
Details | solubility (mole fraction)
in ethanol, 283.15 K | 0.00168
in ethanol, 288.15 K | 0.00216
in ethanol, 292.85 K | 0.00284
in ethanol, 298.25 K | 0.00358
in ethanol, 303.05 K | 0.00454
in ethanol, 308.15 K | 0.00572
in ethanol, 313.45 K | 0.00721
in ethanol, 318.55 K | 0.00895
in ethanol, 323.35 K | 0.0107
in ethanol, 328.75 K | 0.0138
in ethanol, 333.25 K | 0.0159
in ethanol, 338.25 K | 0.0186
in ethanol, 343.15 K | 0.022
in isopropanol, 283.15 K | 0.000941
in isopropanol, 288.15 K | 0.0015
in isopropanol, 293.25 K | 0.00197
in isopropanol, 298.15 K | 0.0028
in isopropanol, 303.35 K | 0.00387
in isopropanol, 307.95 K | 0.00504
in isopropanol, 313.05 K | 0.00685
in isopropanol, 318.65 K | 0.0093
in isopropanol, 323.55 K | 0.0109
in isopropanol, 328.35 K | 0.0144
in isopropanol, 333.15 K | 0.0169
in isopropanol, 338.35 K | 0.0202
in isopropanol, 343.05 K | 0.0241
in isopropanol, 348.75 K | 0.0299
in isopropanol, 353.15 K | 0.0369
in methanol, 283.15 K | 0.00436
in methanol, 288.25 K | 0.00543
in methanol, 292.75 K | 0.00647
in methanol, 298.15 K | 0.00809
in methanol, 302.95 K | 0.0103
in methanol, 308.05 K | 0.0122
in methanol, 313.15 K | 0.0145
in methanol, 318.25 K | 0.0166
in methanol, 323.15 K | 0.019
in methanol, 328.55 K | 0.0201
in methanol, 333.15 K | 0.026
in n-butanol, 283.15 K | 0.00228
in n-butanol, 288.35 K | 0.00316
in n-butanol, 293.05 K | 0.00395
in n-butanol, 298.25 K | 0.00481
in n-butanol, 303.55 K | 0.00592
in n-butanol, 308.05 K | 0.00708
in n-butanol, 313.65 K | 0.0083
in n-butanol, 318.45 K | 0.0102
in n-butanol, 323.25 K | 0.0111
in n-butanol, 328.05 K | 0.0131
in n-butanol, 332.95 K | 0.0144
in n-butanol, 338.15 K | 0.0162
in n-butanol, 343.55 K | 0.0186
in n-butanol, 348.95 K | 0.0217
in n-butanol, 353.05 K | 0.0237
in n-butanol, 358.15 K | 0.0268
in n-propanol, 283.15 K | 0.000819
in n-propanol, 288.25 K | 0.00105
in n-propanol, 293.05 K | 0.00153
in n-propanol, 298.35 K | 0.00211
in n-propanol, 303.15 K | 0.00284
in n-propanol, 308.45 K | 0.0039
in n-propanol, 313.15 K | 0.00502
in n-propanol, 318.75 K | 0.00673
in n-propanol, 323.25 K | 0.00835
in n-propanol, 328.15 K | 0.0107
in n-propanol, 333.05 K | 0.0135
in n-propanol, 338.15 K | 0.0167
in n-propanol, 343.55 K | 0.0214
in n-propanol, 348.65 K | 0.0261
in n-propanol, 353.15 K | 0.0304
in n-propanol, 358.15 K | 0.0397
in water, 283.15 K | 0.000308
in water, 288.35 K | 0.000309
in water, 292.25 K | 0.000316
in water, 297.45 K | 0.000322
in water, 302.15 K | 0.000335
in water, 308.55 K | 0.000365
in water, 313.15 K | 0.000401
in water, 318.25 K | 0.00046
in water, 323.45 K | 0.000547
in water, 328.65 K | 0.000673
in water, 333.15 K | 0.000825
in water, 338.55 K | 0.00108
in water, 342.95 K | 0.00138
in water, 348.75 K | 0.00196
in water, 353.15 K | 0.0026
in water, 358.15 K | 0.00366
